{"source": "patent US20220257698A1", "about": "“ANGIOTENSIN TYPE 2 (AT2) RECEPTOR AGONISTS FOR USE IN THE TREATMENT OF CANCER” (LANTHIOPEP B.V., priority 2019, published 2022)", "key": {"[1]": {"biological_target": "tyrosine kinases (PTK) in colon carcinoma PDX lysates", "assay": "PamChip tyrosine kinase (PTK) activity profiling of colon carcinoma PDX tumor lysates", "design": "species or system human PDX grown in mice; Kinase score: scale not given here", "settings": "for Kinase statistic: value<0 = higher activity in vehicle-treated tumors; for Kinase score: vehicle-treated vs KcAng(1-7)-treated tumors", "protocol": "In particular, to determine the effect of treatment on kinase activities, Tyrosine (PTK) and Serine/Threonine (STK) PamChip®-based kinase activity profiling in lysates from colon carcinoma PDX was performed by PamGene International B.V., The Netherlands.\nPamGene® kinase activity profiles were measured for vehicle-treated colon cancer PDX tumors (control, n=10) and KcAng(1-7)-treated colon cancer PDX tumors (treatment, n=10).\nFrozen tissues of tumor samples were processed to make lysates followed by determination of tyrosine kinase and serine/threonine kinase activity profiles. Datasets were analyzed by PamGene bioinformatics toolbox, for example by using PamGene's method called Upstream Kinase Analysis.\nKinase Score was used for ranking kinases based on their significance and specificity in terms of the set of peptides used for the corresponding kinase. Kinase statistics indicates the overall change of the peptide set that represents the kinase. Kinase statistics value<0 indicates higher activity in vehicle-treated tumors."}, "[2]": {"tested_on": "U87MG glioblastoma CDX", "assay": "Subcutaneous U87MG glioblastoma CDX: tumor weight and time of tumor progression", "type": "in vivo, cd1 nu/nu mice (human GBM cell line)", "settings": "for tumor weight [%]: relative to vehicle = 100", "protocol": "Effects of KcAng(1-7) were evaluated in vivo in a subcutaneous GBM xenograft model in nude mice. Insurgence of neurologic phenomena and differences in the survival rates were evaluated. Human GBM cell lines U87MG and U251MG were used. Cell lines were grown in DMEM nutrient mixture supplemented with 10% fetal bovine serum, 1% penicillin/streptomycin, and 25 mM HEPES buffer. All cell lines were cultured at 37° C. in a humidified atmosphere consisting of 5% CO2 and 95% air. Medium was changed every 2 days and the cell morphology was evaluated under microscope daily.\nSix-week-old male athymic nude mice (age 5-7 weeks) were housed with free access to food and water in a temperature-controlled room. Each group is represented by 10 xenograft cd1 nu/nu mice. The mice were injected s.c. in the right distal hind limb with one million of cultured human tumor cell lines suspended in 0.15 mL of 2:1 solution of PBS/Matrigel (Matrigel BD Biosciences). Xenografts were measured every four days with a digital caliper in two perpendicular dimensions. Tumor volume was calculated according to the following formula:\nTumor volume=(tumor width)×(tumor width)×(tumor length)÷2\nAt the end of experiments, mice were euthanized and tumors removed. Weight loss or other signs of distress such as hunched posture were checked during and after treatments.\nEfficacy of treatment was evaluated by: (1) the size of tumors (vehicle control and treated), (2) the relative weight at the end of experiment, and (3) the indirect evaluation of angiogenesis by determining hemoglobin levels.\nIn vivo tumor response to treatment was evaluated using the following parameters: (i) Complete response (CR): defined as the disappearance of a measurable lesion, (ii) Partial response (PR): defined as a reduction of greater than 50% of the sum of the products of the cross-sectional diameters of the measurable lesion, (iii) Stable disease (SD): defined as a reduction of less than 50% or an increase of less than 25% in the sum of the products of the cross-sectional diameters of the measurable lesions, (iv) Tumor progression (TP): defined as an increase of greater than […] in the sum of the products of the cross-sectional diameters of the measured lesion, (v) Time to progression (TTP) defining the tumor growth delay. Tumor progression was calculated through the analysis of bioluminescence imaging (BLI) photon counts and when possible through the analyses of tumor volumes calculated by magnetic resonance imaging (MRI), (vi) Disease free survival (DFS) is the time elapsed between the time point at which no luciferase activity is detectable anymore and the death of the animal, (vii) Overall survival (OS) is the time elapsed between tumor inoculation and death of the animal. […] Luciferase transfected cells were used for bioluminescence evaluations.\nData are presented as mean and standard error of the mean (SEM) or standard deviation (SD). Statistical comparisons between control and treated groups were established by carrying out the Kruskal-Wallis test (a nonparametric one-way analysis of variance) or the Mann-Whitney test (in the case of two groups). The level of significance was corrected by multiplying the P value by the number of comparisons performed (n) according to […] correction. TP, TTP and DFS were analyzed by Kaplan-Meier curves and Gehan's generalized Wilcoxon test. All statistical analyses were undertaken using SPSS 10.0.\nMice with U87MG cell CDX were randomized at day 0. KcAng(1-7) was injected daily subcutaneously (0.2 μg/kg) starting at day 0 until the (ethical) endpoint maximally at day 42. TMZ was administered at 16 mg/kg during 5 consecutive days, that is from […]. Volumetric evaluation of the tumor was performed every 4 days and tumor weight was measured at the end of the experiment.\nSynergism was determined using the methods described in Clarke et al. Breast Cancer Research and Treatment 46:255-278 (1997).\nMice with U87MG cell CDX were randomized at day 0. […]"}}}
{"substance": "Lys-Asp-Arg-Val-Abu/Ala-Ile-His-Abu/Ala (KDRVAIHA; not fully specified; cyclic thioether (Abu/Ala bridge); VARIANT (5)..(5) /replace=“Abu”; VARIANT (8)..(8) /replace=“Abu”; SITE (1)..(8) /note=“Variant residues given in the sequence have no preference with respect to those in the annotations for variant positions”) [KcAng(1-7)]", "values": [{"measurement": "Kinase statistic", "setting": "[1]; kinase CCK4/PTK7", "result": "−0.58"}, {"measurement": "Kinase score", "setting": "[1]; kinase CCK4/PTK7", "result": 2.23}, {"measurement": "Kinase statistic", "setting": "[1]; kinase EPHA1", "result": "−0.52"}, {"measurement": "Kinase score", "setting": "[1]; kinase EPHA1", "result": 2.01}, {"measurement": "Kinase statistic", "setting": "[1]; kinase EPHA2", "result": "−0.50"}, {"measurement": "Kinase score", "setting": "[1]; kinase EPHA2", "result": 1.96}, {"measurement": "Kinase statistic", "setting": "[1]; kinase EPHA3", "result": "−0.55"}, {"measurement": "Kinase score", "setting": "[1]; kinase EPHA3", "result": 2.38}, {"measurement": "Kinase statistic", "setting": "[1]; kinase EPHA4", "result": "−0.52"}, {"measurement": "Kinase score", "setting": "[1]; kinase EPHA4", "result": 2.55}, {"measurement": "Kinase statistic", "setting": "[1]; kinase EPHA8", "result": "−0.51"}, {"measurement": "Kinase score", "setting": "[1]; kinase EPHA8", "result": 1.71}, {"measurement": "Kinase statistic", "setting": "[1]; kinase FER", "result": "−0.51"}, {"measurement": "Kinase score", "setting": "[1]; kinase FER", "result": 2.49}, {"measurement": "Kinase statistic", "setting": "[1]; kinase FES", "result": "−0.47"}, {"measurement": "Kinase score", "setting": "[1]; kinase FES", "result": 1.84}, {"measurement": "Kinase statistic", "setting": "[1]; kinase FGFR1", "result": "−0.49"}, {"measurement": "Kinase score", "setting": "[1]; kinase FGFR1", "result": 2.39}, {"measurement": "Kinase statistic", "setting": "[1]; kinase FGFR2", "result": "−0.47"}, {"measurement": "Kinase score", "setting": "[1]; kinase FGFR2", "result": 1.82}, {"measurement": "Kinase statistic", "setting": "[1]; kinase FGFR3", "result": "−0.48"}, {"measurement": "Kinase score", "setting": "[1]; kinase FGFR3", "result": 1.89}, {"measurement": "Kinase statistic", "setting": "[1]; kinase HER2", "result": "−0.47"}, {"measurement": "Kinase score", "setting": "[1]; kinase HER2", "result": 2.68}, {"measurement": "Kinase statistic", "setting": "[1]; kinase HER4", "result": "−0.47"}, {"measurement": "Kinase score", "setting": "[1]; kinase HER4", "result": 2.11}, {"measurement": "Kinase statistic", "setting": "[1]; kinase JAK1~B", "result": "−0.49"}, {"measurement": "Kinase score", "setting": "[1]; kinase JAK1~B", "result": 1.70}, {"measurement": "Kinase statistic", "setting": "[1]; kinase LMR1", "result": "−0.71"}, {"measurement": "Kinase score", "setting": "[1]; kinase LMR1", "result": 4.10}, {"measurement": "Kinase statistic", "setting": "[1]; kinase MER", "result": "−0.44"}, {"measurement": "Kinase score", "setting": "[1]; kinase MER", "result": 1.74}, {"measurement": "Kinase statistic", "setting": "[1]; kinase MET", "result": "−0.46"}, {"measurement": "Kinase score", "setting": "[1]; kinase MET", "result": 2.16}, {"measurement": "Kinase statistic", "setting": "[1]; kinase TEC", "result": "−0.44"}, {"measurement": "Kinase score", "setting": "[1]; kinase TEC", "result": 1.79}, {"measurement": "Kinase statistic", "setting": "[1]; kinase TXK", "result": "−0.46"}, {"measurement": "Kinase score", "setting": "[1]; kinase TXK", "result": 2.05}, {"measurement": "Kinase statistic", "setting": "[1]; kinase TYRO3/SKY", "result": "−0.45"}, {"measurement": "Kinase score", "setting": "[1]; kinase TYRO3/SKY", "result": 2.03}, {"measurement": "Time of tumor progression - TTP, mean (days ± SD)", "setting": "[2]; KcAng(1-7) 0.2 μg/kg/d s.c., TMZ 16 mg/kg for 5 days, or both", "result": "12.80 ± 0.54", "unit": "days"}, {"measurement": "increase of the time of tumor progression", "setting": "[2]; KcAng(1-7) 0.2 μg/kg/d vs vehicle", "result": "approximately 2 days"}, {"measurement": "Time of tumor progression - TTP, mean (days ± SEM)", "setting": "[2]; KcAng(1-7) 1 μg/kg/d s.c., Losartan 20 mg/kg/d i.p., or both", "result": "15.2 ± 0.9", "unit": "days"}, {"measurement": "Tumor weight, mean (mg ± SEM)", "setting": "[2]; KcAng(1-7) 1 μg/kg/d s.c., Losartan 20 mg/kg/day i.p., or both", "result": "580 ± 27", "unit": "mg"}, {"measurement": "Tumor weight, mean (mg ± SD)", "setting": "[2]; end of experiment, KcAng(1-7) 0.2 μg/kg/d s.c., TMZ 16 mg/kg for 5 days, or both", "result": "830 ± 57", "unit": "mg"}, {"measurement": "tumor weight [%]", "setting": "[2]; KcAng(1-7) 0.2 μg/kg/d, TMZ 16 mg/kg, or both", "result": 79.8, "unit": "%"}, {"measurement": "tumor weight [%]", "setting": "[2]; KcAng(1-7) 1 μg/kg/d, Losartan 20 mg/kg/d, or both", "result": 55.8, "unit": "%"}]}
